Series [1] relates to mouse malignant melanoma B16 F0 cells. The series is described as follows: MTT based cell proliferation assay, B16 F0 cells. As to conditions: Mus musculus, B16F0, 72 h, MTT; for inhibition at 60 µg/mL: at 60 μg/ml; for inhibition at 60 µg/mL / inhibition at 100 µg/mL: three days; for inhibition at 100 µg/mL: at 100 μg/ml. The protocol: (§1) The cytotoxic efficacies of the various selenopheno triazene compounds (compounds 1 to 16) was evaluated in both human malignant melanoma A375 cells and mouse malignant melanoma B16 F0 cells by MTT cell proliferation assay kit (Roche Applied Sciences, Germany). The assay was carried out according to the instruction provided by the vendor. Briefly, equal numbers of cells was plated in 96-well flat-bottomed plates and were incubated with both DTIC and the test compounds (compounds 1 to 16) at various concentrations for a period of three days. […] Finally, the cells were solubilized by adding solubilizing solution and allowed to incubate at 37° C. overnight. After complete solubilization of the formazan crystals, the absorbance was read at 540 nm in a microplate reader (BioRad, USA).

Series [2] concerns human malignant melanoma A375 cells. The series is described as follows: MTT based cell proliferation assay, A375 cells. As to conditions: A-375, 72 h, at 10 μg/ml, three days. The protocol:
as §1

A word on the melting point: it is the temperature of the solid-liquid transition. For orientation: inhibition means the percentage by which the read-out fell short of the control. Lower therefore signals a weak effect.

In brackets after ≈: the same amount, converted by molar mass.

In turn, `CN(C)/N=N/c1c(C(=O)O)[se]c2ncccc12` [Compound 10, 3-[(dimethylamino)diazenyl]selenopheno[2,3-b]pyridine-2-carboxylic acid] showed a melting point of 172 to 174 °C. Further, the inhibition at 60 µg/mL in series [1] worked out at 12%.
The compound `Cn1nnc2c3c([se]c2c1=O)CCCC3` [Compound 14, 3-methyl-6,7,8,9-tetrahydrobenzo[1,2-b]1,2,3-triazino[4,5-d]selenophen-4-one] returned an inhibition at 60 µg/mL in series [1] of 17%.
Compound `Cn1nnc2c([se]c3ccccc32)c1=O` [Compound 16, 3-methylbenzo[b]1,2,3-triazino[4,5-d]selenophen-4-one] showed a melting point of 190 to 192 °C. The compound further had an inhibition at 60 µg/mL in series [1] of 31%.
The corresponding values for `CN(C)/N=N/c1c(C(N)=O)[se]c2ncccc12` [Compound 6, 3-[(dimethylamino)diazenyl]selenopheno[2,3-b]pyridine-2-carboxamide] are 230 to 232 °C and 4%.
The compound `CN(C)/N=N/c1c(C(N)=O)[se]c2c1CCCC2` [Compound 5, 3-[(dimethylamino)diazenyl]-4,5,6,7-tetrahydrobenzo[1,2-b]selenophene-2-carboxamide] displayed a melting point of 198 to 202 °C. In series [1], this compound showed an inhibition at 60 µg/mL of 0.41%.
In the case of `Cn1nnc2cc(-c3ccccc3)[se]c2c1=O` [Compound 12, 3-methyl-6-phenylselenopheno[3,2-d]1,2,3-triazin-4-one], the melting point lay in the range of 232 to 234 °C. For the same compound, in series [1], at 100 µg/mL the inhibition was 27%.
`CN(C)/N=N/c1cc(-c2ccccc2)[se]c1C(N)=O` [Compound 3, 3-[(dimethylamino)diazenyl]-5-phenylselenophene-2-carboxamide]: the melting point was 222 to 224 °C. The compound also came in with an inhibition at 10 µg/mL in series [2] of 14%. This compound showed an inhibition at 100 µg/mL in series [1] of 30%.
Turning to `CN(C)/N=N/c1cc(-c2ccccc2)[se]c1C(=O)O` [Compound 7, 3-[(dimethylamino)diazenyl]-5-phenylselenophene-2-carboxylic acid], the melting point was 212 to 214 °C. The compound further displayed an inhibition at 100 µg/mL in series [1] of 5%.
Consider `Cn1nnc2cc(C(C)(C)C)[se]c2c1=O` [Compound 13, 6-(tert-butyl)-3-methylselenopheno[3,2-d]1,2,3-triazin-4-one], for which the melting point was 98 to 100 °C. The same compound yielded an inhibition at 60 µg/mL in series [1] of 33%.
The corresponding values for `CN(C)/N=N/c1cc(C(C)(C)C)[se]c1C#N` [Compound 11, 3-[(dimethylamino)diazenyl]-5-(tert-butyl)selenophene-2-carbonitrile] are 58 to 60 °C and 48%.
As to `CN(C)/N=N/c1cc(C(C)(C)C)[se]c1C(N)=O` [Compound 4, 3-[(dimethylamino)diazenyl]-5-(tert-butyl)selenophene-2-carboxamide], the melting point lay in the range of 218 to 220 °C. This compound came in with an inhibition at 10 µg/mL in series [2] of 0.5%. For the same compound, at 60 µg/mL the inhibition in series [1] was 34%.
As to `CN(C)/N=N/c1cc(C(C)(C)C)[se]c1C(=O)O` [Compound 8, 3-[(dimethylamino)diazenyl]-5-(tert-butyl)selenophene-2-carboxylic acid], the melting point is 120 to 122 °C. In series [2], the inhibition at 10 µg/mL was 24%. Also, the IC50 in series [1] (three days incubation, read-out: Cell proliferation inhibition in B16F0 cells, IC50) worked out at 43.6 µg/mL (≈ 144 µM).
`Cn1nnc2c([se]c3ncccc32)c1=O` [Compound 15, 3-methyl-1,2,3-triazino[4′,5′-5,4]selenopheno[2,3-b]pyridine-4-one] yielded a melting point of 202 to 204 °C.
On the same count and under the same terms, then `CN(C)/N=N/c1cc(C(N)=O)[se]c1C(N)=O` [Compound 2, 3-[(dimethylamino)diazenyl]selenophene-2,5-dicarboxamide], with 266 to 268 °C.
`CN(C)/N=N/c1c(C(=O)O)[se]c2c1CCCC2` [Compound 9, 3-[(dimethylamino)diazenyl]-4,5,6,7-tetrahydrobenzo[1,2-b]selenophene-2-carboxylic acid]: the melting point was 100 to 102 °C. This compound also gave an inhibition at 60 µg/mL in series [1] of 32%.

(Values after US8143237B2, “Anti-cancer drugs, and uses relating for malignant melanoma and other cancers” (Kasina Laila Innova Pharmaceuticals Private Limited, priority 2009, dated 2012).)
